According to ChEMBL document CHEMBL5465560, “Selectivity Literature for EUbOPEN Chemogenomic Library” (2024):

Assays:
[1] = target: Cyclin-dependent kinase 13 (Homo sapiens, UniProt Q14004); test: Selectivity interaction (KinomeScan (DiscoverX)) EUB0001049a CDK13; settings: at 1 µM
[2] = target: Receptor tyrosine-protein kinase erbB-2 (Homo sapiens, UniProt P04626); test: Selectivity interaction (Ambit KINOMEscan and KiNATiv profiling in Jurkat cells) EUB0000090b ERBB2; format: cell-based; settings: at 1 µM
Receptor tyrosine-protein kinase erbB-2, sequence (P04626 whole entry): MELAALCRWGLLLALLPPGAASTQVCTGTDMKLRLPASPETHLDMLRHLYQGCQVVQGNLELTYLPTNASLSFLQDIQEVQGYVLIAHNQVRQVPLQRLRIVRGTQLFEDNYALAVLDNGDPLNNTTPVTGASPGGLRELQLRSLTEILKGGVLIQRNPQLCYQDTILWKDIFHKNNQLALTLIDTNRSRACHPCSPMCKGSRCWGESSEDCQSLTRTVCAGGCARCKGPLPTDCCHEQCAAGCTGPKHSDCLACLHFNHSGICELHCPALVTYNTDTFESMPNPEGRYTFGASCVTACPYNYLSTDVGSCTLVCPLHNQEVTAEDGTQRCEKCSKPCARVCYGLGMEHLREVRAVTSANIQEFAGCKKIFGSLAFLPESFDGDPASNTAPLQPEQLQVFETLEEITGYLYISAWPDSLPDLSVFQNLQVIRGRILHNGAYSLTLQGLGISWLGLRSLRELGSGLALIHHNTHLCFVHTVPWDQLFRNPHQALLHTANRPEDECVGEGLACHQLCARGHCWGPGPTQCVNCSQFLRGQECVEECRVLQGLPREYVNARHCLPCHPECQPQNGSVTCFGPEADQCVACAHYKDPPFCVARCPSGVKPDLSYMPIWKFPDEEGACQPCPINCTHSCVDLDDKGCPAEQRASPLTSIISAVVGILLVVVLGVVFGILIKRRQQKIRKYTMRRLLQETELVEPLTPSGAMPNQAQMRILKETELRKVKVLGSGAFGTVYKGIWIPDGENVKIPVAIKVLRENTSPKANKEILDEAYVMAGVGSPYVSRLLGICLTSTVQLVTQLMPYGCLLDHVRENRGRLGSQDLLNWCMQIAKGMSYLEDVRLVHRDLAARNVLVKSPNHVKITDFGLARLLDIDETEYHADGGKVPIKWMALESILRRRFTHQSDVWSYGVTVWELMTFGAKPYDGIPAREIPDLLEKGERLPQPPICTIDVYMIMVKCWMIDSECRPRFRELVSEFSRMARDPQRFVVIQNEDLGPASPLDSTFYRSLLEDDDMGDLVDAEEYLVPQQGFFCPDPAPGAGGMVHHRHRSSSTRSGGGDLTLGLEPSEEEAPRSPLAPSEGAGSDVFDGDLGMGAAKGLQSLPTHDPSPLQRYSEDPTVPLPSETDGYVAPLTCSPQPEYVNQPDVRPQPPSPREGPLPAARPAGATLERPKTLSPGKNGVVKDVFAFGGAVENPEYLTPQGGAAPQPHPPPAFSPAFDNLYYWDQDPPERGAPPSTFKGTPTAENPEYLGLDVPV

[3] = test system: Fibroblast growth factor receptor 3 (Homo sapiens), P22607 [G697C]; test: (§1) Selectivity interaction (LanthaScreen Eu Kinase Binding Assay) EUB0001632a FGFR3; settings: at 10 µM
Fibroblast growth factor receptor 3 (Homo sapiens), P22607 [G697C], sequence (P22607 whole entry G697C): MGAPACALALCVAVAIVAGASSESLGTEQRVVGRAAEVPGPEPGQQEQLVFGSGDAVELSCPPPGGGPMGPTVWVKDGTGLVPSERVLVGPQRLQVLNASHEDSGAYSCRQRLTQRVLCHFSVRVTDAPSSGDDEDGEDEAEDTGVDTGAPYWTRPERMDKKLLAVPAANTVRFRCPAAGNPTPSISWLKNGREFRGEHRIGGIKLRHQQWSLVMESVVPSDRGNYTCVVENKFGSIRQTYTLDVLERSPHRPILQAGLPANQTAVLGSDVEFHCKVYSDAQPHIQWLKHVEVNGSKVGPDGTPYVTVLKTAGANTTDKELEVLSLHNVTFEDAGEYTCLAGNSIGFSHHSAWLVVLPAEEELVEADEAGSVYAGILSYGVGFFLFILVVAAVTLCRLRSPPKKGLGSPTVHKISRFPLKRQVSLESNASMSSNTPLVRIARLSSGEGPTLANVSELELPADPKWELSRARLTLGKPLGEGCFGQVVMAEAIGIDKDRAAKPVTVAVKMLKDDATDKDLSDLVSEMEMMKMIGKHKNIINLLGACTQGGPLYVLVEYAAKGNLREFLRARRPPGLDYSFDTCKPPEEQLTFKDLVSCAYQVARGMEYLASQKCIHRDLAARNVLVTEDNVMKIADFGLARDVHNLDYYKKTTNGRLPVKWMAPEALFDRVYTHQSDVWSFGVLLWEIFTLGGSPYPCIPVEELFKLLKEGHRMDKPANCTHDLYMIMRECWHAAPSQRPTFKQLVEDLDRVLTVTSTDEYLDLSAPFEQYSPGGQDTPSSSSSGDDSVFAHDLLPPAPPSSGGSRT

[4] = test system: Fibroblast growth factor receptor 3 (Homo sapiens), P22607 [K650M]; test: as §1; settings: at 10 µM
Fibroblast growth factor receptor 3 (Homo sapiens), P22607 [K650M], sequence (P22607 whole entry K650M): as the sequence (P22607 whole entry G697C) above, with K650M, C697G counted along it

[5] = target: T1, Mitogen-activated protein kinase 12 (Homo sapiens) (UniProt P53778); test: Selectivity interaction (KinomeScan (DiscoverX)) EUB0000695a MAPK12; settings: at 100 nM
T1 sequence (whole entry): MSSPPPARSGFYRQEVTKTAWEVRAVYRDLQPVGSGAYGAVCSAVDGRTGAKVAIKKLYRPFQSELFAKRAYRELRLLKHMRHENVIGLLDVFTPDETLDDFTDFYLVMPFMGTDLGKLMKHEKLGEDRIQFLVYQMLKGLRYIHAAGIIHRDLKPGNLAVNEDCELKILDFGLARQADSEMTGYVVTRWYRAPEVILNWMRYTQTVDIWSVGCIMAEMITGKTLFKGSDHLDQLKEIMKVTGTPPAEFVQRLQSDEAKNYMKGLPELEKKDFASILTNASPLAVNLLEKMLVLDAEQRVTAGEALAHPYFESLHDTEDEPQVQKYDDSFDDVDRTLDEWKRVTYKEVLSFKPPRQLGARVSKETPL

[6] = target: T2, Serine/threonine-protein kinase MAK (Homo sapiens) (UniProt P20794); test: Selectivity interaction (KinomeScan (DiscoverX)) EUB0000595a MAK; settings: at 10 µM
T2 sequence (whole entry): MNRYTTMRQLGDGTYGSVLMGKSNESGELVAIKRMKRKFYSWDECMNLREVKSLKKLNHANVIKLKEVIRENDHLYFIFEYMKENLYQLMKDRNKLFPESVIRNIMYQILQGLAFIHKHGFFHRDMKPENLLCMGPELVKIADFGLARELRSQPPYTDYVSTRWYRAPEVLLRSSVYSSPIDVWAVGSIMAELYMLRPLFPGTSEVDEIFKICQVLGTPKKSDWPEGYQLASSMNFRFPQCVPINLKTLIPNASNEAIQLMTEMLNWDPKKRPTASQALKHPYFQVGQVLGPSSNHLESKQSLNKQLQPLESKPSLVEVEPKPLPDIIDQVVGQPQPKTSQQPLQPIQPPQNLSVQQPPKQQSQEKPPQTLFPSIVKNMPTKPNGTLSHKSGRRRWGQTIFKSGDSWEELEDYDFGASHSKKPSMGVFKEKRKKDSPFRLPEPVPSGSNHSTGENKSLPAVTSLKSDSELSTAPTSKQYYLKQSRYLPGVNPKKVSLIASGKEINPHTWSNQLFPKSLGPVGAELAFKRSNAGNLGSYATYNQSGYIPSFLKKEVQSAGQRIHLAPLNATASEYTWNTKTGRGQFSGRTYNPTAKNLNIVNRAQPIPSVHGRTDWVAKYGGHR

[7] = target: T3, Dual specificity tyrosine-phosphorylation-regulated kinase 2 (Homo sapiens) (UniProt Q92630); test: Selectivity interaction (KinomeScan (DiscoverX)) EUB0000229b DYRK2; settings: at 10 µM
T3 sequence (whole entry): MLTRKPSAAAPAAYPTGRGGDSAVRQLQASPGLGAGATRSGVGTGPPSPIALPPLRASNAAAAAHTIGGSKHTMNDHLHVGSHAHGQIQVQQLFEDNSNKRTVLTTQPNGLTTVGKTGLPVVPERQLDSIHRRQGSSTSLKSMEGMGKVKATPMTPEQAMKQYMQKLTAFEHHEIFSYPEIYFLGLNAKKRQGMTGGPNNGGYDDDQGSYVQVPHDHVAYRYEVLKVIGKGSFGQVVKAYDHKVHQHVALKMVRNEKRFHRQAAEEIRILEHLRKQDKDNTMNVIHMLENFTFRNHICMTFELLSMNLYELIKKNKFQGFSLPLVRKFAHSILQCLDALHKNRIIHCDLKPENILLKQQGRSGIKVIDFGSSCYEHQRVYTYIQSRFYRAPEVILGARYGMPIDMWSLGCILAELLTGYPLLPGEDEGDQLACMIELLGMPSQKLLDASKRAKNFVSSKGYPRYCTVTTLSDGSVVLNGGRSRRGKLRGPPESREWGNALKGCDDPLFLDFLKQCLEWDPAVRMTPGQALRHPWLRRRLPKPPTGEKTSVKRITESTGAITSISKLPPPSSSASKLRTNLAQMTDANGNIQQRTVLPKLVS

[8] = target: T4, NUAK family SNF1-like kinase 2 (Homo sapiens) (UniProt Q9H093); test: Selectivity interaction (ProQinase) EUB0000171b NUAK2
T4 sequence (whole entry): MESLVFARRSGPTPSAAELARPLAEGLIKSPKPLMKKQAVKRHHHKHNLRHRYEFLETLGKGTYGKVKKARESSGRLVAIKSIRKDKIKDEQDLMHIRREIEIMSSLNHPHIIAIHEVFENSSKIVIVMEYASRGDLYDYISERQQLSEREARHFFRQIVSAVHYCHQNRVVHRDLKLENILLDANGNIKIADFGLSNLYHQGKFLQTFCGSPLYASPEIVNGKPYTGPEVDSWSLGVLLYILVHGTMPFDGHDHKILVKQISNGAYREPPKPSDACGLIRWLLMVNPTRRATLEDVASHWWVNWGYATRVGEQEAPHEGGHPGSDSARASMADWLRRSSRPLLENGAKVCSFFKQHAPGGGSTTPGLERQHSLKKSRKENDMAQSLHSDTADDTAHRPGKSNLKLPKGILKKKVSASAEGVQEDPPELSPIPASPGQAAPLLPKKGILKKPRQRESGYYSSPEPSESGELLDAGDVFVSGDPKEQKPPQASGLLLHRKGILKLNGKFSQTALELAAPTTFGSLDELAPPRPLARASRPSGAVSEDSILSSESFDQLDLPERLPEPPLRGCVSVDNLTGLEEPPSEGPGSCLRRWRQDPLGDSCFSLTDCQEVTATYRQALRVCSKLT

[9] = target: Epithelial discoidin domain-containing receptor 1 (Homo sapiens) (UniProt Q08345); test: Selectivity interaction (KinomeScan (DiscoverX)) EUB0001619a DDR1; settings: at 1 µM
Epithelial discoidin domain-containing receptor 1 (Homo sapiens), sequence (Q08345 whole entry, the tested form may be a part): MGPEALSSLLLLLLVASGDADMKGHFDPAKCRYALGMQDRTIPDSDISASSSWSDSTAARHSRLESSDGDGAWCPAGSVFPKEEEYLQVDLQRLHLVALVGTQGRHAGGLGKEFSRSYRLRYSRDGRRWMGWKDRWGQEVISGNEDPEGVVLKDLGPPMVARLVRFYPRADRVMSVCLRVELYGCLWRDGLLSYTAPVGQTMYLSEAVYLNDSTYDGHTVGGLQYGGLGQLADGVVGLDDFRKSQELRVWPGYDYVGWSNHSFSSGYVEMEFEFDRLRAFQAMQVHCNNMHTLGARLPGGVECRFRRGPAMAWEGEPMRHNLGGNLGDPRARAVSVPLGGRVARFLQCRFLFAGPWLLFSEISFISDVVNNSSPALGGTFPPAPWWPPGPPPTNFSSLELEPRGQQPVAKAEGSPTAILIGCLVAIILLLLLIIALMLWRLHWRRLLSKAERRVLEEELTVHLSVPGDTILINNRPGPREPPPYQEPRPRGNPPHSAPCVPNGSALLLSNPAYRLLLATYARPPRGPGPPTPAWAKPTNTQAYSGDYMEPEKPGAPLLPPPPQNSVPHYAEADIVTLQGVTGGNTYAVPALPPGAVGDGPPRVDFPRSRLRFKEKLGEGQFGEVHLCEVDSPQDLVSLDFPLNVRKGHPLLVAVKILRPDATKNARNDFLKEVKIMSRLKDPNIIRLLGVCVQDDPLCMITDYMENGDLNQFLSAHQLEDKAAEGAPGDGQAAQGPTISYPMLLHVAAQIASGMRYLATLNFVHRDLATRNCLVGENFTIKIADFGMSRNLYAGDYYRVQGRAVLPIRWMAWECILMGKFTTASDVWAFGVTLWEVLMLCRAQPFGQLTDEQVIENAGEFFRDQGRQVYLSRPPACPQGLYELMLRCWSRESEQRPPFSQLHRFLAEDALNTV

[10] = target: T4, NUAK family SNF1-like kinase 2 (Homo sapiens); test: Selectivity interaction (KinomeScan (DiscoverX)) EUB0000618a NUAK2; settings: at 10 µM

Cyclin-dependent kinase 13, sequence (Q14004 whole entry, looked up): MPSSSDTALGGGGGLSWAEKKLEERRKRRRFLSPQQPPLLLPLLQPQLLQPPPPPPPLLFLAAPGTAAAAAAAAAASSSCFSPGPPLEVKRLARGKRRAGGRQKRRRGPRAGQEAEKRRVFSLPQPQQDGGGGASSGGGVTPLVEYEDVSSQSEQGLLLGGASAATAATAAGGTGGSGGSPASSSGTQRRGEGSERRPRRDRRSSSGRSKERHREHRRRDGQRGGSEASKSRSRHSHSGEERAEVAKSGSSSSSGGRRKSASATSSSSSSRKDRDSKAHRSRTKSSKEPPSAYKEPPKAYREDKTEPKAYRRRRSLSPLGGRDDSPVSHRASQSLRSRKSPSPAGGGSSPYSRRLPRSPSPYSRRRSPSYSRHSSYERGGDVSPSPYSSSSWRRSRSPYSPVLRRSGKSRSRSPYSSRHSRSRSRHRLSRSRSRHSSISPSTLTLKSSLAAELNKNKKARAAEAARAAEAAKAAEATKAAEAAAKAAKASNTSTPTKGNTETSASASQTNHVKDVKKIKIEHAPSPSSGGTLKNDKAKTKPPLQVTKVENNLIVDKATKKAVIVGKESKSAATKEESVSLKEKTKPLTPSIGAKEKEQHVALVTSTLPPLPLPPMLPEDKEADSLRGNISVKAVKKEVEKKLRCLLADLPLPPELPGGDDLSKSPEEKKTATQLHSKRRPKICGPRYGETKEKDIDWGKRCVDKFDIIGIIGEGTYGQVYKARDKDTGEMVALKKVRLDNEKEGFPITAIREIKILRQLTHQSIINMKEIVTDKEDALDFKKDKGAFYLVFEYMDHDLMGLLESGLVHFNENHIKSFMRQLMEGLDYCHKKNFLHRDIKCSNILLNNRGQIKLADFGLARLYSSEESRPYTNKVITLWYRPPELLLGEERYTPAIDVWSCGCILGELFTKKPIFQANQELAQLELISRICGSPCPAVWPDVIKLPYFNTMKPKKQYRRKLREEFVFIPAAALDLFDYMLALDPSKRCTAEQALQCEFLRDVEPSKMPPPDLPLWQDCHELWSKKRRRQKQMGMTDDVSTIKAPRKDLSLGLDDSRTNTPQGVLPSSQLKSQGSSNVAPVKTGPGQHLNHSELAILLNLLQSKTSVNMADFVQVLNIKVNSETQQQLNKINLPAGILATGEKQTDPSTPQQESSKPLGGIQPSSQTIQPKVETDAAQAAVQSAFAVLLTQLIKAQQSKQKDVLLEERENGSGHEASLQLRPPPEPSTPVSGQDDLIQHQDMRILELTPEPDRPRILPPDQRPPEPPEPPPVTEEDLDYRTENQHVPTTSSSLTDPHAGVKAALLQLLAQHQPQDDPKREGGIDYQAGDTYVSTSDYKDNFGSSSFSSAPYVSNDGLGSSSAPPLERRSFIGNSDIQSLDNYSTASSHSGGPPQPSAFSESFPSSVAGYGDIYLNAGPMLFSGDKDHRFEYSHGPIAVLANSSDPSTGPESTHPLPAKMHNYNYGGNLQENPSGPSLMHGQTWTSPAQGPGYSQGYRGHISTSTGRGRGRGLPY

## COc1cc(Nc2nc(C)cc(-c3cnn4nc(OC)ccc34)n2)cc(C(F)(F)F)c1
[1]
  % of control: 100%

## CN(C)C/C=C/C(=O)Nc1ccc(C(=O)N2CCCC(Nc3ncc(Cl)c(-c4c[nH]c5ccccc45)n3)C2)cc1 (stereo unspecified)
[2]
  % of control: 96%

## Cn1cc(-n2cnc3c(NCc4nc5cc(Cl)c(Cl)cc5[nH]4)nc(N4CCOCC4)nc32)cn1
[3]
  % of inhibition: -105%
[4]
  % of inhibition: -215%

## Cc1cc(F)c(C(=O)Nc2cccc(-c3nncn3C(C)C)n2)cc1-n1cnc(C2CC2)c1
[5]
  % of control: 100%

## COCC(=O)NC/C=C/c1ccc2ncnc(Nc3ccc(Oc4ccc(C)nc4)c(C)c3)c2c1 [CP-724714]
[6]
  % of control: 90%

## COc1cc(N(C)c2ccnc3ccc(C(F)(F)F)cc23)cc(OC)c1OC
[7]
  % binding: 84%

## C=CC(=O)Nc1cccc(C(=O)Nc2ccc(Nc3cc(-c4[nH]c(SC)nc4C)ccn3)cc2)c1
[8]; at 1 µM
  % of control: 99%
[8]; at 5 µM
  % of control: 87%

## N#Cc1cccc(-c2c[nH]c3ncnc(N4CCOCC4)c23)c1
[9]
  % of control: 100%

## O[C@H]1CC[C@H](Nc2ncc3nc(Nc4c(F)cc(F)cc4F)n([C@H]4CCOC4)c3n2)CC1
[10]
  % of control: 52%
